Experimental data as given in patent US11142529B2 (priority 2013, dated 2021).

Key:
aged-impaired (AI) rats [1] = assay: Morris water maze behavioral task (Example 109); assay type: in vivo, rat; conditions: 100 μg ICV
Protocol: The effects of 6,6 dimethyl-3-(3-hydroxypropyl)thio-1-(thiazol-2-yl)-6,7-dihydro-2-benzothiophen-4(5H)-one on the in vivo spatial memory retention of aged-impaired (AI) rats were assessed in a Morris water maze behavioral task. A water maze is a pool surrounded with a novel set of patterns relative to the maze.
Cognitively impaired aged rats were implanted unilaterally with a cannula into the lateral ventricle. Stereotaxic coordinates were 1.0 mm posterior to bregma, 1.5 mm lateral to midline, and 3.5 mm ventral to the skull surface. After about a week of recovery, the rats were pre-trained in a water maze for 2 days (6 trials per day) to locate a submerged escape platform hidden underneath the surface of the pool, in which the escape platform location varied from day to day. No intracerebroventricular (ICV) infusion was given during pre-training.
After pre-training, rats received ICV infusion of either 100 μg 6,6 dimethyl-3-(3-hydroxypropyl)thio-1-(thiazol-2-yl)-6,7-dihydro-2-benzothiophen-4(5H)-one (n=6) in 5 μl DMSO or vehicle DMSO (n=5) 40 min prior to water maze training and testing. Training consisted of 8 trials per day for 2 days where the hidden escape platform remained in the same location. Rats were given 60 seconds to locate the platform with a 60 seconds inter-trial interval. The rats were given a probe test (120 seconds) 24 hr after the end of training where the escape platform was removed. During the training, there were 4 blocks, where each block had 4 training trials.
During a test trial 24 hr after training, the escape platform was removed. The search/swim pattern of the rats was used to measure whether the rats remember where the escape platform was located during pre-trial training in order to test for the long-term memory of the rats. In this trial, “target annulus” is a designated area 1.5 times the size of the escape platform around the area where the platform was located during pre-trial training. “Opposite annulus” is a control area of the same size as the size of the target annulus, which is located opposite to the target annulus in the pool. If the rats had good long term memory, they would tend to search in the area surrounding the location where the platform was during the pre-trial training (i.e., the “target” annulus; and not the “opposite” annulus). “Time in annulus” is the amount of time in seconds that the rat spent in the target or opposite annulus area. “Number (#) of crossings” in annulus is the number of times the rat swam across the target or opposite annulus area.

MAM-treated rats = conditions: cited from earlier work
GABAA receptors (α5β2γ2) = target: T1, GABAA receptors (α5β2γ2) (Homo sapiens, UniProt P18507+P31644); assay: Positive allosteric modulator activity, potentiation of EC20 GABA current in oocytes; assay type: cell-based; conditions: read-out: GABA α5 functional potentiation
T1 construct: expressed in transfected cells; host or cells: oocytes injected with a mix of alpha, beta and gamma cDNA (1:1:10 by weight)
T1 sequence (P31644 32-462): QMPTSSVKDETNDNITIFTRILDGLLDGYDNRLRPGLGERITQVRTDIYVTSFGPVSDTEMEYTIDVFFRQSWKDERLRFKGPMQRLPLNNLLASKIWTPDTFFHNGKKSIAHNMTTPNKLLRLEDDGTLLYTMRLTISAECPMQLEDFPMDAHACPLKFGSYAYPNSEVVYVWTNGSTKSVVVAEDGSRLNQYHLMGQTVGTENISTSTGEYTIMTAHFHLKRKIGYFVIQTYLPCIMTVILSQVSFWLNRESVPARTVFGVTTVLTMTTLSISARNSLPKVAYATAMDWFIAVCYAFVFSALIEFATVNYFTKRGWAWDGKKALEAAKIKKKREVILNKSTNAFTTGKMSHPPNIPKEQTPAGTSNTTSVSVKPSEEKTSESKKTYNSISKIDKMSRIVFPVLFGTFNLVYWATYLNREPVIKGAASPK
T1 sequence (P47870 25-512 partner limits assumed): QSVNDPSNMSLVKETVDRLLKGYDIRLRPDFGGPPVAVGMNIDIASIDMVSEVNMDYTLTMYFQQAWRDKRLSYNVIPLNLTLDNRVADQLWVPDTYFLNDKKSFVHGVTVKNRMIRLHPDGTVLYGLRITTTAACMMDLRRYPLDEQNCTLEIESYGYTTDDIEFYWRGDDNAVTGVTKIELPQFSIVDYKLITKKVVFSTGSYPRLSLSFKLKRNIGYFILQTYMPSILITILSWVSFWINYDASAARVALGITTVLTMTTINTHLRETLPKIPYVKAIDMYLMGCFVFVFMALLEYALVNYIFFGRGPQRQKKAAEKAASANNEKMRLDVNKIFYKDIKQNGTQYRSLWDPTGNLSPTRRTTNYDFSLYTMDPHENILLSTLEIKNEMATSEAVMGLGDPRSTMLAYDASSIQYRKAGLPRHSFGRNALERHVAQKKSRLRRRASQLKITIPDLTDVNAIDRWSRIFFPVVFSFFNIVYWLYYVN
T1 sequence (P18507 40-475): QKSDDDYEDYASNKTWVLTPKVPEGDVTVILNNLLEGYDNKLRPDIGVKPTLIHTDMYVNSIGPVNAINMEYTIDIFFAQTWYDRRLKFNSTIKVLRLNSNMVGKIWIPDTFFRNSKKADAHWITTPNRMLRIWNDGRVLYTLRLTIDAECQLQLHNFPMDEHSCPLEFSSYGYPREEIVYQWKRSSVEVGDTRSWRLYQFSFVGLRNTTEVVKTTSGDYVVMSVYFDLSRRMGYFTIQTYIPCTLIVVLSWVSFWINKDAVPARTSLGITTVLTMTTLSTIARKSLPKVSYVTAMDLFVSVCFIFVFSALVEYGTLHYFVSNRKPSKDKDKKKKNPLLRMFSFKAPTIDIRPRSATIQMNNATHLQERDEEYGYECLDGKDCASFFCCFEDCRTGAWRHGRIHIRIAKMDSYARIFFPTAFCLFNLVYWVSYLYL
Protocol: On day 1, 1 ng/32 nL of GABAA […] cDNA was injected into one oocyte. Test starts on day 2. The cDNA injected to the oocytes was a mix of alpha, beta and gamma, their ratio is 1:1:10 (by weight) and the total weight of the mixed 3 subunits to be injected in one oocyte was 1 ng in 32 nl volume. The injected oocytes can also be tested on day 3. In such case, the cDNA amount injected to the oocytes should be reduced by 20%.
1). 8 oocytes were placed in 8 chambers of OpusXpress and superfused with Modified Barth's Saline (MBS) at 3 mL/min. Glass electrodes back-filled with 3M KCl (0.5-3 megaohms) were used.
3). […] Oocytes were washed with MBS for 5-10 min.
2). […] Divide Itest by IGABA to obtain potentiation (%).
3). Discard all tested oocytes, new oocytes were used and the above steps 1) and 2) were repeated to test second concentration of the same compound. Each oocyte was used for only one concentration test for a single test compound. The steps were repeated for other test compounds.

α5β3γ2 GABAA receptors = target: T2, α5β3γ2 GABAA receptors (Homo sapiens, UniProt P18507+P31644); assay: Binding activity of test compounds on GABAAR ([3H]Ro15-1788 inhibition, Ltk cell membranes)
T2 construct: membranes
T2 sequence (P31644 32-462): as the sequence (P31644 32-462) above
T2 sequence (P28472 26-473 partner): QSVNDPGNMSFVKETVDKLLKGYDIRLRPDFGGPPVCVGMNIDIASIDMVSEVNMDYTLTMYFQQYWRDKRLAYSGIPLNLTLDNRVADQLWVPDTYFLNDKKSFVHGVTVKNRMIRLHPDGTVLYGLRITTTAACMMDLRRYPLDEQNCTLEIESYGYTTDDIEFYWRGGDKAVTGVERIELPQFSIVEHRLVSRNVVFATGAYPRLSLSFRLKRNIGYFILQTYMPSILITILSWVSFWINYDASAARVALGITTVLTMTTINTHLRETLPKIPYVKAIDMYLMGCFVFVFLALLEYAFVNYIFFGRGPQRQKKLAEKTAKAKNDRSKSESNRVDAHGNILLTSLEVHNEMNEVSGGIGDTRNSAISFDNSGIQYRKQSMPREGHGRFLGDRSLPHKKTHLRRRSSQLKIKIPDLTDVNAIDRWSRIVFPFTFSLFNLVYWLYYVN
T2 sequence (P18507 40-475): as the sequence (P18507 40-475) above
Protocol: The binding was performed on Ltk cells stably expressing GABAA receptors: α1β1γ2, α2β3γ2, α3β3γ2 and α5β3γ2 (provided by Merck Co., NJ, USA). Cells were seeded in 100 mm culture plates in DMEM/F12 medium containing 10% serum and antibiotics in 5% C02 and allowed to grow for 1-2 days. GABAAR expression was then induced by dexamethasone as follows: 0.5 μM for 1 day for α5 containing and 2 μM for 3 days for α1, α2 and α3 containing GABAARs. After induction, cells were collected by scraping into Dulbecco's Phosphate buffered saline (DPBS, pH 7.4, Invitrogen, Carlsbad, Calif., USA) and centrifuged at 150×g for 10 min. The pellet was washed twice by re-suspension and centrifugation. The cell pellets from at least 5 different preps were combined, suspended in the binding assay buffer (50 mM KH2PO4; 1 mM EDTA; 0.2 M KCl, pH 7.4) and membranes prepared by sonication (3-5 times, 30 sec) using Branson Sonifier 150 (G.Heinmann, Germany). Protein content was determined using BCA assay (Bio-Rad Labs, Reinach, Switzerland) with Bovine Serum Albumin (Sigma Aldrich, St. Louis, Mo., USA) as the standard. Aliquots were prepared and stored at −20° C. for further use in binding assays.
Saturation binding curves were obtained by incubating membranes with increasing concentrations (0.01-8 nM) of [^3H]Ro15-1788 (Flumazepil, 75-85 Ci/mmol, PerkinElmer, MA, USA), with nonspecific binding measured in the presence of 10 μM diazepam.
All binding assays were performed for 1 h at 4° C. in assay buffer. The total assay volume was 0.5 ml containing 0.2 mg/ml protein for α5 and 0.4 mg/ml for α1, α2, and α3 containing GABAAR membranes. Incubations were terminated by filtration through GF/B filters using a 24-Cell Harvestor (Brandel, Gaithersburg, Md., USA) followed by 3 washes with ice-cold assay buffer. Filters were transferred to scintillation vials, 5 ml scintillation liquid added, vortex-mixed and kept in dark. Next day, radioactivity was obtained using a scintillation counter (Beckman Coulter, Brea, Calif., USA). All assays were performed in triplicate.
Saturation and inhibition curves were obtained using GraphPad Prism software (GraphPad Software, Inc., CA, USA).

[2] = target: T3, α5-containing GABAA receptor (Rattus norvegicus, UniProt P18508+P19969); assay type: in vivo; conditions: i.v.; for effect on Ro 15-4513 binding in hippocampus: 0.01-10 mg/kg
T3 construct: occupancy in the hippocampus (a region of high GABAAα5 receptor density); from tissue; host or cells: rat brain in vivo; hippocampus versus cerebellum
T3 sequence (P19969 32-464 limits assumed): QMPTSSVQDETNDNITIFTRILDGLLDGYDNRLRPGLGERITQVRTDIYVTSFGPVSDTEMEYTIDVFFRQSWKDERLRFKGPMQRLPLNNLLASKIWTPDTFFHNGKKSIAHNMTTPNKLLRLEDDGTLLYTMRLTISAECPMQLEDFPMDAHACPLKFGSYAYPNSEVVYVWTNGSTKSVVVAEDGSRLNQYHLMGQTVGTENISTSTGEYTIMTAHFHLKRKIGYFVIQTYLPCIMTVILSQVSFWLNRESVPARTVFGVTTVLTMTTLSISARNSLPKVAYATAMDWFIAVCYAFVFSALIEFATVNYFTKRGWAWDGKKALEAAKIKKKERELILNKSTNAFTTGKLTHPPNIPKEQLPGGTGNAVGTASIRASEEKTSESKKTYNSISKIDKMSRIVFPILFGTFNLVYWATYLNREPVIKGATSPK
T3 sequence (P18508 39-466): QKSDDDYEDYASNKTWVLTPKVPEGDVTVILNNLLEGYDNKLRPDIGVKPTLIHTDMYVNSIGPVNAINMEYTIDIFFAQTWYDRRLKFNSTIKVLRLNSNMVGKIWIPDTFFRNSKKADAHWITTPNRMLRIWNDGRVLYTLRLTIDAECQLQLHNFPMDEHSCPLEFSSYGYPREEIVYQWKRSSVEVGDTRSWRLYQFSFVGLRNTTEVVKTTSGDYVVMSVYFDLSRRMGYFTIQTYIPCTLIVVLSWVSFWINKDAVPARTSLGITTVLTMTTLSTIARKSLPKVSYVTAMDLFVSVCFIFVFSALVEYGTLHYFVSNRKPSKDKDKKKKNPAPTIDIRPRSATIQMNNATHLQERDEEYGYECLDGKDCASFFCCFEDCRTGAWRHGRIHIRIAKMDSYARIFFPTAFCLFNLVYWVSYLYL

[3] = system: α5-containing GABAA receptor; assay type: in vivo, rat; conditions: 0.01-10 mg/kg, i.v.
aged-impaired (AI) rats [4] = assay: Radial Arm Maze (RAM) behavioral task, four-hour delay (Example 108); assay type: in vivo, rat
Protocol: The same experiment was repeated using the same vehicle control and doses of ethyl 3-methoxy-7-methyl-9H-benzo[f]imidazo[1,5-a][1,2,4]triazolo[4,3-d][1,4]diazepine-10-carboxylate, where the vehicle control was tested 5 times, the 3 mg/kg dose of ethyl 3-methoxy-7-methyl-9H-benzo[f]imidazo[1,5-a][1,2,4]triazolo[4,3-d][1,4]diazepine-10-carboxylate was tested 4 times, and the other doses of ethyl 3-methoxy-7-methyl-9H-benzo[f]imidazo[1,5-a][1,2,4]triazolo[4,3-d][1,4]diazepine-10-carboxylate were tested twice.
Parametric statistics (paired t-tests) was used to compare the retention test performance of the AI rats in the four-hour delay version of the RAM task in the context of different doses of ethyl 3-methoxy-7-methyl-9H-benzo[f]imidazo[1,5-a][1,2,4]triazolo[4,3-d][1,4]diazepine-10-carboxylate and vehicle control (see FIG. 5).

GABAAα5 receptor = target: T4, GABAAα5 receptor (Rattus norvegicus, UniProt P18508+P19969); assay: GABAA α5 receptor occupancy with Ro 15-4513 tracer (Example 107B); assay type: in vivo, Long Evans rats
T4 construct: occupancy in the hippocampus (a region of high GABAAα5 receptor density); from tissue; host or cells: rat brain in vivo; hippocampus versus cerebellum
T4 sequence (P19969 32-464 limits assumed): as the sequence (P19969 32-464 limits assumed) above
T4 sequence (P18508 39-466): as the sequence (P18508 39-466) above
Text: Food and water were available ad libitum.

[5] = probe test 24 hr after training
[6] = vehicle then tracer 1 μg/kg i.v.

SMILES	activation at 0.1 µM (GABAA receptors (α5β2γ2))	Ki (α5β3γ2 GABAA receptors)	other results
CC1(C)CC(=O)c2c(SCCCO)sc(-c3nccs3)c2C1 [6,6 dimethyl-3-(3-hydroxypropyl)thio-1-(thiazol-2-yl)-6,7-dihydro-2-benzothiophen-4(5H)-one]			learning of the water maze task (aged-impaired (AI) rats [1]): improved the learning; long-term memory in the water maze task (aged-impaired (AI) rats [1]): improved the long-term memory; number of crossings of target annulus compared to opposite annulus (aged-impaired (AI) rats [1]; [5]): more often; time in target annulus compared to opposite annulus (aged-impaired (AI) rats [1]; [5]): spent significantly more time in the target annulus; time to find the escape platform (escape latency) (aged-impaired (AI) rats [1]; training block 1): about 24 seconds; time to find the escape platform (escape latency) (aged-impaired (AI) rats [1]; training block 4): about 9.6 seconds
C#Cc1ccc2c(c1)C(c1ccccc1F)=N[C@H](C)c1c(C(=O)OCC)ncn1-2 [SH-053-2′F—R—CH3]			increased locomotor response to amphetamine in MAM-treated rats (MAM-treated rats; rat, in vivo): is reduced; cortical-evoked responses of HPC neurons (MAM-treated rats; saline-treated and MAM-treated animals): diminished cortical-evoked responses
Cc1nnn2c1Cc1c(C(=O)OCC(F)(F)F)ncn1-c1ccc(F)cc1-2 [Compound 114]	> 50%	< 99 nM	
Cc1nc(-c2ncn3c2Cn2c(COc4ccccc4)nnc2-c2cc(F)ccc2-3)no1 [Compound 148]	20 to 49%	< 99 nM	
CCOC(=O)c1ncn2c1Cc1c(CN3CCCC3)nnn1-c1cc(OC)ccc1-2 [Compound 48]	20 to 49%	< 99 nM	
CCc1nc(-c2ncn3c2Cc2c(C)nnn2-c2cc(F)ccc2-3)no1 [Compound 155]	20 to 49%	< 99 nM	
CCOC(=O)c1ncn2c1Cn1c(C)nnc1-c1cc(OC)ccc1-2 [Ethyl 3-methoxy-7-methyl-9H-benzo[f]imidazo[1,5-a][1,2,4]tri]			effect on Ro 15-4513 binding in hippocampus [2]: blocked the binding; effect on cerebellum levels of Ro 15-4513 [3]: did not affect binding
COc1ccc2c(c1)-c1nnc(COc3ccccc3Cl)n1Cc1c(-c3noc(C(C)C)n3)ncn1-2 [Compound 175]	20 to 49%	< 99 nM	
CCOC(=O)c1ncn2c1Cc1c(C)nnn1-c1cc(F)ccc1-2 [Compound 2]	20 to 49%	< 99 nM	
CCOC(=O)c1ncn2c1Cn1c(COc3ccccc3)nnc1-c1cc(F)ccc1-2 [Compound 137]	20 to 49%	< 99 nM	
Cc1nnn2c1Cc1c(-c3nc(C(C)C)no3)ncn1-c1ccccc1-2 [Compound 132]	20 to 49%	< 99 nM	
COc1ccc2c(c1)-c1nnc(COc3ccccc3)n1Cc1c(C(=O)OC(C)C)ncn1-2 [Compound 120]	20 to 49%	< 99 nM	
CCc1nc(-c2ncn3c2Cn2c(COc4ccccc4)nnc2-c2cc(F)ccc2-3)no1 [Compound 158]	20 to 49%	< 99 nM	
COCc1nnc2n1Cc1c(-c3nc(C)no3)ncn1-c1ccc(OC)cc1-2 [Compound 128]	20 to 49%	< 99 nM	
COc1ccc2c(c1)-c1nnc(COc3ccc(F)cc3)n1Cc1c(-c3noc(C(C)C)n3)ncn1-2 [Compound 172]	> 50%	< 99 nM	
Cc1nc(-c2ncn3c2Cc2c(C)nnn2-c2ccccc2-3)no1 [Compound 127]	20 to 49%	< 99 nM	
CCOC(=O)c1ncn2c1Cc1c(COc3cccc(OC)c3)nnn1-c1cc(OC)ccc1-2 [Compound 11]	20 to 49%	< 99 nM	
CCOC(=O)c1ncn2c1Cc1c(COc3ccccc3)nnn1-c1cc(OC)ccc1-2 [Compound 9]	20 to 49%	< 99 nM	
CCOC(=O)c1ncn2c1Cn1c(C)nnc1-c1cc(OC)ccc1-2 [ethyl 3-methoxy-7-methyl-9H-benzo[f]imidazo[1,5-a][1,2,4]tri]			memory performance relative to vehicle control (aged-impaired (AI) rats [4]; 3 mg/kg, t(7)=4.13, p=0.004, or t(7)=3.08, p=0.018): significantly improved memory performance; memory performance relative to vehicle control (aged-impaired (AI) rats [4]; 10 mg/kg, t(7)=2.82, p=0.026): significantly improved memory performance; effect on Ro 15-4513 binding in hippocampus [2]: reduced Ro 15-4513 binding in hippocampus; α5-containing GABAA receptor occupancy ([2]; 10 mg/kg): > 90%; effect on cerebellum levels of Ro 15-4513 [3]: without affecting
Cc1nnn2c1Cc1c(C(=O)OC(C)C)ncn1-c1ccccc1-2 [Compound 153]	20 to 49%	< 99 nM	
CCOC(=O)c1ncn2c1CN(C)C(=O)c1cc(N=[N+]=[N-])ccc1-2 [Ro 15-4513]			Ro 15-4513 level in hippocampus compared with cerebellum (GABAAα5 receptor; tracer 1 μg/kg i.v.): > 5 fold; level of Ro 15-4513 in cerebellum (GABAAα5 receptor; [6]): 0.36 ± 0.02 ng/g; level of Ro 15-4513 in hippocampus (GABAAα5 receptor; [6]): 1.93 ± 0.05 ng/g
Cc1noc(-c2ncn3c2Cc2c(Cc4ccccc4)nnn2-c2cc(F)ccc2-3)n1 [Compound 109]	20 to 49%	< 99 nM	
Cc1nc(-c2ncn3c2Cc2c(C)nnn2-c2cc(F)ccc2-3)no1 [Compound 145]	> 50%	< 99 nM	
Cc1nnn2c1Cc1c(-c3noc(C(C)(C)C)n3)ncn1-c1ccc(F)cc1-2 [Compound 160]	> 50%	< 99 nM	
COc1ccc2c(c1)-c1nnc(COC3CCCC3)n1Cc1c(-c3noc(C(C)C)n3)ncn1-2 [Compound 178]	> 50%	< 99 nM	
